Experimental data from US20030037354A1, “Animal model with disrupted Fgf14 gene” (priority 2001, published 2003).
Like-named read-outs stand apart in the source and are kept apart here.

Legend:
[1] = tested on: wildtype and Fgf14^N-βGal/N-βGal mice; assay: Cocaine-induced seizure activity with EEG recording; type: in vivo, mouse
Method: Surgical implantation of skull screw electrodes was performed with the mice positioned in a stereotaxic frame under halothane anesthesia. Using sterile technique, the scalp was incised at the midline and the periosteum was scraped free from the skull. Three burr holes were made with a high speed drill for placement of epidural screw electrodes. Two active electrodes were placed over the right and left frontal cortex approximately 1 mm posterior to the bregma. A reference electrode was implanted in the region over the frontal sinus. The electrodes and lead wires were stabilized to the skull with dental cement. The mice were allowed a three-day recovery period before recording. Reference EEG recordings from the right and left frontal regions were performed using a Grass P5 Series AC amplifier with high and low frequency filter settings at 100 and 1 Hz, respectively. The outputs of the amplifiers were digitized and stored using an analog-to-digital converter and Axoscope software.

[2] = tested on: wildtype and FGF14 deficient mice; assay: PTZ-induced seizure: latency to onset and time to death; type: in vivo, mouse; conditions: for time to death (mean duration): FGF14 (−/−) mice
Method: Time to onset of tonic-clonic seizure was recorded. In the first experiment (FIG. 9), the mean age was 82 days and the sex ratio was 50% male/female. In the second experiment, the mean age was 354 days and all animals were female.

extracellular dopamine = conditions: cited from earlier work
[3] = tested on: wildtype and Fgf14^N-βGal/N-βGal mice; assay: Locomotor activity response to stimulant drugs and dopamine receptor agonists; type: in vivo, mouse
Method: Locomotor activity. For the locomotor activity experiments, all mice were acclimated to the activity cages (28 cm long×17 cm wide×12.5 cm high) for one hour on two consecutive days. […] Mice were tested every other day and the order of drug treatment was counterbalanced across days within genotype groups. Locomotor activity was recorded every five minutes by two beams of red light placed at 10 and 19 cm along the length of the activity cage.
Statistical Analyses. The behavioral data were analyzed using analysis of variance (ANOVA) models typically containing one between-subjects variable (Genotype) and one within-subjects variable (e.g., Trials or Test Sessions). Subsequent one-way ANOVAs were used to evaluate main effects. Data from the experiments concerning drug effects on locomotor activity were analyzed by using a […] analysis of variance (ANOVA) with one between-subjects variable (Drug) being added to the above model. […] Alpha was set at p<0.05 for all analyses.

[4] = tested on: Dopamine D1 receptor deficient mice; conditions: cited from earlier work
[5] = Fgf14^N-βGal/N-βGal mice, 40 mg/kg

COC(=O)[C@H]1[C@@H](OC(=O)c2ccccc2)C[C@@H]2CC[C@H]1N2C [cocaine]
EEG recording [1, 5]: epileptiform activity
induction of seizures (behaviour) [1, 5]: brief tonic movements
induction of seizures ([1]; both wildtype and FGF14 deficient mice, 80 mg/kg): tonic-clonic seizures
induction of seizures ([1]; wildtype mice, 40 mg/kg): did not induce seizures

C1CCc2nnnn2CC1 [PTZ, pentylenetetrazol]
time to death (mean duration) ([2]; Experiment 1, 100 mg/kg IP, average age 82 days): about 4200 seconds
time to death (mean duration) ([2]; Experiment 2, 75 mg/kg IP, average age 354 days): ~5700 s
time to death after seizure onset ([2]; wild type mice): 15 to 20 s

CC(N)Cc1ccccc1 (stereo not shown) [amphetamine]
elevation of DA efflux above baseline (extracellular dopamine; 2 mg/kg): 350%
elevation of DA efflux above baseline (extracellular dopamine; 4 mg/kg): 750%
hyperactivity response relative to wildtype littermates ([3]; Fgf14^N-βGal/N-βGal mice, 2 and 4 mg/kg subcutaneous): significantly lower
locomotor response ([4]; 2 mg/kg): non-responsive
locomotor response ([4]; 5 mg/kg): decreased response

Oc1cc2c(cc1O)C(c1ccccc1)CNCC2 (stereo not shown) [SKF38393]
reduction in the locomotor activity induced by the D1R agonist ([3]; Fgf14^N-βGal/N-βGal mice compared to wildtype): 30%
